Laboratory results taken from PMC11876601 (Molecular Systems Biology, 2025).
Read-outs that look alike come from different tables or passages of the source.

Tests used:
Experiment in all cases: cells
AsPC-1 [1] = test system: AsPC-1; set-up: ATPlite luminescence viability of PDAC cell lines, 11-dose single-agent curves, 4-parameter fit; details: Homo sapiens, ASPC1, 72 h, read-out: EC50 [nM]
Method in brief: (§1)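 cells (1000 to 5000 per well) seeded 24 h before drug addition in a combination screen at 0.2% final DMSO. Controls were drug-free wells (negative) and 5 µM staurosporine (positive).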

BxPC-3 = test system: BxPC-3; set-up: ATPlite luminescence viability of PDAC cell lines, 11-dose single-agent curves, 4-parameter fit; details: Homo sapiens, BXPC-3, 72 h, read-out: EC50 [nM]
Method in brief: as §1

Capan-1 [2] = test system: Capan-1; set-up: ATPlite luminescence viability of PDAC cell lines, 11-dose single-agent curves, 4-parameter fit; details: Homo sapiens, CAPAN-1, 72 h, read-out: EC50 [nM]
Method in brief: as §1

Colo-357 [3] = test system: Colo-357; set-up: ATPlite luminescence viability of PDAC cell lines, 11-dose single-agent curves, 4-parameter fit; details: Homo sapiens, COLO357, 72 h, read-out: EC50 [nM]
Method in brief: as §1

Dan-G [4] = test system: Dan-G; set-up: ATPlite luminescence viability of PDAC cell lines, 11-dose single-agent curves, 4-parameter fit; details: 72 h, read-out: EC50 [nM]
Method in brief: as §1

FAMPAC = test system: FAMPAC; set-up: ATPlite luminescence viability of PDAC cell lines, 11-dose single-agent curves, 4-parameter fit; details: 72 h, read-out: EC50 [nM]
Method in brief: as §1

HPDE = test system: HPDE; set-up: ATPlite luminescence viability of PDAC cell lines, 11-dose single-agent curves, 4-parameter fit; details: HPDE, 72 h, read-out: EC50 [nM]
Method in brief: as §1

HuP-T4 = test system: HuP-T4; set-up: ATPlite luminescence viability of PDAC cell lines, 11-dose single-agent curves, 4-parameter fit; details: Homo sapiens, HuP-T4, 72 h, read-out: EC50 [nM]
Method in brief: as §1

MiaPaCa-2 [5] = test system: MiaPaCa-2; set-up: ATPlite luminescence viability of PDAC cell lines, 11-dose single-agent curves, 4-parameter fit; details: Homo sapiens, MIA PaCa-2, 72 h, read-out: EC50 [nM]
Method in brief: as §1

PANC-1 [6] = test system: PANC-1; set-up: ATPlite luminescence viability of PDAC cell lines, 11-dose single-agent curves, 4-parameter fit; details: Homo sapiens, PANC-1, 72 h, read-out: EC50 [nM]
Method in brief: as §1

PSN-1 = test system: PSN-1; set-up: ATPlite luminescence viability of PDAC cell lines, 11-dose single-agent curves, 4-parameter fit; details: Homo sapiens, PSN1, 72 h, read-out: EC50 [nM]
Method in brief: as §1

PaTu-8988-T = test system: PaTu-8988-T; set-up: ATPlite luminescence viability of PDAC cell lines, 11-dose single-agent curves, 4-parameter fit; details: Homo sapiens, PaTu 8988t, 72 h, read-out: EC50 [nM]
Method in brief: as §1

Suit2-07 [7] = test system: Suit2-07; set-up: ATPlite luminescence viability of PDAC cell lines, 11-dose single-agent curves, 4-parameter fit; details: 72 h, read-out: EC50 [nM]
Method in brief: as §1

Capan-1 [8] = test system: Capan-1; set-up: Viability of PDAC cell lines, ATPlite luminescence, 11-dose single-agent curve fit; details: Homo sapiens, CAPAN-1, 72 h, read-out: EC50 [nM]
Method in brief: (§2)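 cells (1000 to 5000 per well) seeded 24 h before drug addition in a screen at 0.2% final DMSO. Controls were drug-free wells (negative) and 5 µM staurosporine (positive).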

AsPC-1 [9] = test system: AsPC-1; set-up: Viability of PDAC cell lines, ATPlite luminescence, 11-dose single-agent curve fit; details: Homo sapiens, ASPC1, 72 h, read-out: EC50 [nM]
Method in brief: as §2

PANC-1 [10] = test system: PANC-1; set-up: Viability of PDAC cell lines, ATPlite luminescence, 11-dose single-agent curve fit; details: Homo sapiens, PANC-1, 72 h, read-out: EC50 [nM]
Method in brief: as §2

Colo-357 [11] = test system: Colo-357; set-up: Viability of PDAC cell lines, ATPlite luminescence, 11-dose single-agent curve fit; details: Homo sapiens, COLO357, 72 h, read-out: EC50 [nM]
Method in brief: as §2

Dan-G [12] = test system: Dan-G; set-up: Viability of PDAC cell lines, ATPlite luminescence, 11-dose single-agent curve fit; details: 72 h, read-out: EC50 [nM]
Method in brief: as §2

MiaPaCa-2 [13] = test system: MiaPaCa-2; set-up: Viability of PDAC cell lines, ATPlite luminescence, 11-dose single-agent curve fit; details: Homo sapiens, MIA PaCa-2, 72 h, read-out: EC50 [nM]
Method in brief: as §2

Suit2-07 [14] = test system: Suit2-07; set-up: Viability of PDAC cell lines, ATPlite luminescence, 11-dose single-agent curve fit; details: 72 h, read-out: EC50 [nM]
Method in brief: as §2

Row | SMILES | EC50 (AsPC-1 [1]) [nM] | EC50 (BxPC-3) [nM] | EC50 (Capan-1 [2]) [nM] | EC50 (Colo-357 [3]) [nM] | EC50 (Dan-G [4]) [nM] | EC50 (FAMPAC) [nM] | EC50 (HPDE) [nM] | EC50 (HuP-T4) [nM] | EC50 (MiaPaCa-2 [5]) [nM] | EC50 (PANC-1 [6]) [nM] | EC50 (PSN-1) [nM] | EC50 (PaTu-8988-T) [nM] | EC50 (Suit2-07 [7]) [nM] | EC50 (Capan-1 [8]) [nM] | EC50 (AsPC-1 [9]) [nM] | EC50 (PANC-1 [10]) [nM] | EC50 (Colo-357 [11]) [nM] | EC50 (Dan-G [12]) [nM] | EC50 (MiaPaCa-2 [13]) [nM] | EC50 (Suit2-07 [14]) [nM]
1 | Cc1ccc(C(=O)OCc2ccc([C@@H](CN)C(=O)Nc3ccc4cnccc4c3)cc2)c(C)c1 [Netarsudil] | 6090 | 4970 | > 10000 | 5250 | 1590 | 5930 | > 10000 | 5200 | 3630 | 10000 | > 10000 | 4320 | > 10000 | – | – | – | – | – | – | –
2 | Cc1ccc(NC(=O)c2ccc(CN3CCN(C)CC3)cc2)cc1Nc1nc(-c2cccnc2)cs1 [Masitinib] | > 10000 | 3050 | 3950 | 6650 | 3880 | > 10000 | 5500 | > 10000 | 3770 | 3250 | 4380 | 4770 | > 10000 | – | – | – | – | – | – | –
3 | Cc1cc(Nc2ncc(Cl)c(Nc3ccccc3S(=O)(=O)C(C)C)n2)c(OC(C)C)cc1C1CCNCC1 [Ceritinib] | 784 | 2870 | 5480 | 2930 | 2470 | 2770 | 1550 | > 10000 | 563 | > 10000 | 3390 | 1450 | 4690 | – | – | – | – | – | – | –
4 | C=CC(=O)Nc1cc(Nc2nccc(-c3cn(C)c4ccccc34)n2)c(OC)cc1N(C)CCN(C)C [Osimertinib] | > 10000 | > 10000 | 5860 | 347 | 2560 | > 10000 | 542 | 5300 | > 10000 | > 10000 | 5530 | > 10000 | > 10000 | – | – | – | – | – | – | –
5 | CC1(COc2ccc3c(c2)ncn3-c2ccc3cccc(N4CCC(N)CC4)c3n2)COC1 [Crenolanib] | > 10000 | 3600 | – | 5080 | 5940 | 3340 | 3500 | > 10000 | 2190 | 8300 | 5250 | 5450 | 4860 | 3710 | – | – | – | – | – | –
6 | Nc1cc(C(F)(F)F)c(-c2cc(N3CCOCC3)nc(N3CCOCC3)n2)cn1 [Buparlisib] | 1030 | – | 663 | 403 | 493 | 752 | 1130 | 1300 | 572 | 703 | 638 | 724 | 479 | – | – | – | – | – | – | –
7 | COc1cc(Nc2ncc(F)c(Nc3ccc4c(n3)N(COP(=O)(O)O)C(=O)C(C)(C)O4)n2)cc(OC)c1OC [Fostamatinib] | – | 4790 | 2290 | 1410 | 1010 | > 10000 | > 10000 | 3770 | 946 | – | 2020 | 1190 | 1360 | – | > 10000 | 658 | – | – | – | –
8 | CN(C)C[C@@H]1CCn2cc(c3ccccc32)C2=C(C(=O)NC2=O)c2cn(c3ccccc23)CCO1 [Ruboxistaurin] | – | > 10000 | – | – | – | > 10000 | > 10000 | > 10000 | – | – | > 10000 | > 10000 | – | 8680 | 8110 | 1620 | 5.38 | 5180 | 6440 | 3050
